Laboratory results published in publication PMC3891892 (Nature, 2013).
≈ marks a conversion by molar mass, not a printed value.

What was measured:
[1] = test system: CA04 (A/California/04/2009; H1N1); test: microbe, parasite or virus in culture; format: cell-based; settings: Influenza A virus, H1N1, MDCK, read-out: IC50, plaque reduction assay
[2] = test system: CA04; set-up: species or system mice; settings: mouse, in vivo, po
[3] = test system: recombinant virus possessing Hangzhou/1 HA; format: binding, influenza A virus (H7N9)

| Structure (SMILES) | IC50 [1] [µg/mL] | therapeutic effectiveness [2] | effect of inhibition of NA enzymatic function on glycan binding [3] |
| --- | --- | --- | --- |
| NC(=O)c1nc(F)c[nH]c1=O [favipiravir] | 1.2 (≈ 7.64 µM) | clear therapeutic effectiveness | – |
| CC(=O)N[C@H]1[C@H]([C@H](O)[C@H](O)CO)OC(C(=O)O)=C[C@@H]1N=C(N)N [Zanamivir, zanamivir] | – | – | substantial increases in binding to α2–3 linked sialosides |
